Our source for the IC50 values is BindingDB's records for doi:10.1021/acsmedchemlett.5b00489 (Peking Union Medical College, 2016).

A short description of the experiment: Antagonist activity at human recombinant CXCR2 assessed as inhibition of CXCL1-induced neutrophil chemotaxis after 45 mins by calcein-AM dye based plate reader method.
For the compound `CCS(=O)(=O)c1c(Cl)ccc(NC(=O)Nc2cccc(Cl)c2Cl)c1O`, the concentration for half-maximal inhibition (IC50) is 6310 nM.

For the compound `O=C(Nc1ccc(Cl)c(S(=O)(=O)C2CCCCC2)c1O)Nc1cccc(F)c1Cl`, the IC50 was 79 nM.

As to `CN1CCN(S(=O)(=O)c2c(Cl)ccc(NC(=O)Nc3cccc(Cl)c3Cl)c2O)CC1`, the IC50 is 1000 nM. On to `C[C@@H]1CN(S(=O)(=O)c2c(Cl)ccc(NC(=O)Nc3cccc(Cl)c3Cl)c2O)C[C@H](C)O1`, for which the 50% inhibitory concentration (IC50) was 15800 nM. In the case of `CN1CC[C@H](S(=O)(=O)c2c(Cl)ccc(NC(=O)Nc3cccc(Cl)c3Cl)c2O)C1` it was 251 nM.

Regarding `O=C(Nc1ccc(Cl)c(S(=O)(=O)C2CCOCC2)c1O)Nc1cccc(Cl)c1Cl`, the IC50 was 6.3 nM. As for `O=C(Nc1ccc(Cl)c(C(=O)N2CCCCC2)c1O)Nc1cccc(F)c1Cl`, the figure is 6.3 nM. In the case of `CC(C)S(=O)(=O)c1c(Cl)ccc(NC(=O)Nc2cccc(F)c2Cl)c1O` it was 10 nM; in that of `CN1CCN(S(=O)(=O)c2c(Cl)ccc(NC(=O)Nc3cccc(F)c3Cl)c2O)CC1`, 316 nM. With `CN1CCC(S(=O)(=O)c2c(Cl)ccc(NC(=O)Nc3cccc(Cl)c3Cl)c2O)CC1`, the half-inhibitory concentration (IC50) was 158 nM.

In the case of `O=C(Nc1ccc(Cl)c(C(=O)N2CCCC2)c1O)Nc1cccc(F)c1Cl`, the IC50 is 7.9 nM.

As for `C[C@@H]1CN(S(=O)(=O)c2c(Cl)ccc(NC(=O)Nc3cccc(F)c3Cl)c2O)C[C@H](C)O1`, the IC50 was 3160 nM. Regarding `O=C(Nc1ccc(Cl)c(S(=O)(=O)C2CCC2)c1O)Nc1cccc(F)c1Cl`, the IC50 is 13 nM. In the case of `CCN1CCN(S(=O)(=O)c2c(Cl)ccc(NC(=O)Nc3cccc(F)c3Cl)c2O)CC1`, the IC50 is 2000 nM. Regarding `CC(C)S(=O)(=O)c1c(Cl)ccc(NC(=O)Nc2cccc(Cl)c2Cl)c1O`, the IC50 is 158 nM. On to `O=C(Nc1ccc(Cl)c(S(=O)(=O)N2CCNCC2)c1O)Nc1cccc(Cl)c1Cl`, for which the IC50 is 10000 nM. As to `CN1CCC2(CCC(S(=O)(=O)c3c(Cl)ccc(NC(=O)Nc4cccc(F)c4Cl)c3O)CC2)CC1`, the IC50 is 25 nM. On to `NS(=O)(=O)c1c(Cl)ccc(NC(=O)Nc2cccc(Cl)c2Cl)c1O`, for which the IC50 is 316 nM.

For the compound `CN1CC[C@H](S(=O)(=O)c2c(Cl)ccc(NC(=O)Nc3cccc(F)c3Cl)c2O)C1`, the 50% inhibitory concentration (IC50) is 79 nM. For the compound `O=C(Nc1ccc(Cl)c(S(=O)(=O)C2CCCC2)c1O)Nc1cccc(F)c1Cl`, the IC50 was 25 nM. Turning to `CC(C)(C)S(=O)(=O)c1c(Cl)ccc(NC(=O)Nc2cccc(F)c2Cl)c1O`, the IC50 is 40 nM.

Consider `CN1CCC[C@H](S(=O)(=O)c2c(Cl)ccc(NC(=O)Nc3cccc(F)c3Cl)c2O)CC1`, for which the IC50 was 100 nM. As to `CN1CCC(S(=O)(=O)c2c(Cl)ccc(NC(=O)Nc3cccc(F)c3Cl)c2O)CC1`, the IC50 is 25 nM. For the compound `O=C(Nc1ccc(Cl)c(S(=O)(=O)C2CCOC2)c1O)Nc1cccc(Cl)c1Cl` (configuration not stated), the half-maximal inhibitory concentration (IC50) is 7.9 nM. As for `CC(C)N1CCN(S(=O)(=O)c2c(Cl)ccc(NC(=O)Nc3cccc(F)c3Cl)c2O)CC1`, the IC50 was 2000 nM. Regarding `CCN1CCC(S(=O)(=O)c2c(Cl)ccc(NC(=O)Nc3cccc(F)c3Cl)c2O)CC1`, the IC50 is 158 nM.

Turning to `CN1CC2(CC(S(=O)(=O)c3c(Cl)ccc(NC(=O)Nc4cccc(F)c4Cl)c3O)C2)C1`, the half-inhibitory concentration (IC50) was 631 nM.
